Laboratory results as given in patent publication US20090048258A1, “Amide Compound” (priority 2005, published 2009).

Target: T1, Human DGAT1 (Homo sapiens, UniProt O75907)
T1 construct: my translation of the primer: M-G-DYKDDDD-GDRGSSRRR) (N); made in house; host or cells: Sf9 insect cells (recombinant baculovirus BAC-DGAT1, pFASTBAC1); microsome fraction
T1 sequence (O75907 1-488): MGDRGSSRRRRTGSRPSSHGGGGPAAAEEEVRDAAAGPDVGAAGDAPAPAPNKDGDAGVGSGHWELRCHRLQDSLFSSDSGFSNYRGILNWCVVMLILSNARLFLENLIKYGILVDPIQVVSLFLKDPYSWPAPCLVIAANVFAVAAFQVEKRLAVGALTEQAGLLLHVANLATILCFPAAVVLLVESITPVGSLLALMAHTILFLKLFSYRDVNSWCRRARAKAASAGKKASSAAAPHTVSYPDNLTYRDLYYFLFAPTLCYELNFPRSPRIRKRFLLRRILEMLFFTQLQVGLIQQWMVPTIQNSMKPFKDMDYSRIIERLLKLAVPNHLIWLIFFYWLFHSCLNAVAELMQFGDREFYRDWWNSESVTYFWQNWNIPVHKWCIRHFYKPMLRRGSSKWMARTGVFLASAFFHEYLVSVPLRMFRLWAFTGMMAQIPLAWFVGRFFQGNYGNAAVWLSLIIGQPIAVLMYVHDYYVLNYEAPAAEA
Test: DGAT inhibitory activity: [14C]-triglyceride synthesis by DGAT1 high expression Sf9 microsome
Type: biochemical
Conditions: Table 1, 25 μM dioleoylglycerol, 25 μM [14C]-Oleoyl-CoA, 32° C., 15 min, read-out: DGAT inhibitory activity (according to IC50)
Summary of the method: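 DGAT1 was overexpressed from recombinant baculovirus in Sf9 cells, and microsomes from these cells were the enzyme source. Reactions ran in 100 mM Tris-HCl pH 7.5, 250 mM sucrose, 150 mM MgCl2 and 0.01% BSA. [14C]-triglyceride was extracted into chloroform, separated by TLC and quantified by imaging plate, with inhibition calculated against control and blank (no microsome) counts.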

| Compound | IC50 |
| --- | --- |
| CCOc1cc(NC(=O)CCC(=O)c2ccc(OCC)c(OCC)c2)nc(-c2ccccc2)c1 [Example 40, 4-(3,4-diethoxyphenyl)-N-(4-ethoxy-6-phenylpyridin-2-yl)-4-oxobutanamide] | 50 to 500 nM |
| COc1ccc(C(=O)CCC(=O)Nc2cc(-c3ccccc3)c(Cc3ccccc3)s2)cc1CCCOC(C)=O [Example 53, 3-(5-{4-[(5-benzyl-4-phenyl-2-thienyl)amino]-4-oxobutanoyl}-2-methoxyphenyl)propyl acetate] | 50 to 500 nM |
| CCOc1ccc(C(=O)CCC(=O)Nc2cc(-c3ccccc3)c(C(=O)OC(C)(C)C)s2)cc1OCC [Example 56, tert-butyl 5-{[4-(3,4-diethoxyphenyl)-4-oxobutanoyl]amino}-3-phenylthiophene-2-carboxylate] | 50 to 500 nM |
| CCOc1ccc(C(=O)CCC(=O)Nc2cc(-c3ccccc3)sc2-c2ccccc2)cc1OCC [Example 18, 4-(3,4-diethoxyphenyl)-N-(2,5-diphenyl-3-thienyl)-4-oxobutanamide] | 50 to 500 nM |
| COCOc1ccc(C(=O)CCC(=O)Nc2nc(-c3ccccc3)c(Cc3ccccc3)s2)cc1 [Example 32, N-(5-benzyl-4-phenyl-1,3-thiazol-2-yl)-4-oxo-4-[4-(methoxymethoxy)phenyl]butanamide] | 10 to 50 nM |
| COc1ccc(C(=O)CCC(=O)Nc2cc(-c3ccccc3)c(Cc3ccccc3)s2)cc1CCCO [Example 54, N-(5-benzyl-4-phenyl-2-thienyl)-4-[3-(3-hydroxypropyl)-4-methoxyphenyl]-4-oxobutanamide] | 50 to 500 nM |
| CCOc1ccc(C(=O)NCCNC(=O)c2cc(-c3ccccc3)n(-c3ccc(OC)cc3)c2C)cc1 [Example 64, N-{2-[(4-ethoxybenzoyl)amino]ethyl}-1-(4-methoxyphenyl)-2-methyl-5-phenyl-1H-pyrrole-3-carboxamide] | 50 to 500 nM |
| CCOc1ccc(C(=O)NCCNC(=O)c2cc(-c3ccccc3)n(-c3ccc(SC)cc3)c2C)cc1 [Example 65, N-{2-[(4-ethoxybenzoyl)amino]ethyl}-2-methyl-1-[4-(methylthio)phenyl]-5-phenyl-1H-pyrrole-3-carboxamide] | 10 to 50 nM |
| O=C(O)COc1ccc(C(=O)CCC(=O)Nc2nc(-c3ccccc3)c(Cc3ccccc3)s2)cc1 [Example 38] | 500 to 10000 nM |
| CCOc1ccc(C(=O)CCC(=O)Nc2cc(OCCC(C)C)cc(-c3ccccc3)n2)cc1OCC [Example 41, 4-(3,4-diethoxyphenyl)-N-(4-(3-methylbutoxy)-6-phenylpyridin-2-yl)-4-oxobutanamide] | 50 to 500 nM |
| CCOc1ccc(C(=O)CCC(=O)Nc2nc(-c3ccccc3)c(Cc3ccccc3)s2)cc1 [Example 1, N-(5-benzyl-4-phenyl-1,3-thiazol-2-yl)-4-(4-ethoxyphenyl)-4-oxobutanamide] | ≤ 10 nM |

Same assay, conditions: Table 2, 25 μM dioleoylglycerol, 25 μM [14C]-Oleoyl-CoA, 32° C., 15 min, read-out: DGAT inhibitory activity (according to IC50)

| Compound | IC50 |
| --- | --- |
| CCOc1ccc(C(=O)CCC(=O)Nc2cc(-c3cccc(OC(F)(F)F)c3)cc(-c3ccccc3)n2)cc1OCC [Example 143, 4-(3,4-diethoxyphenyl)-4-oxo-N-{6-phenyl-4-[3-(trifluoromethoxy)phenyl]pyridin-2-yl}butanamide] | 50 to 500 nM |
| CCOc1ccc(C(=O)CCC(=O)Nc2cc(-c3ccc(C(=O)O)cc3)cc(-c3ccccc3)n2)cc1OCC [Example 113, 4-(2-{[4-(3,4-diethoxyphenyl)-4-oxobutanoyl]amino}-6-phenylpyridin-4-yl)benzoic acid] | 500 to 10000 nM |
| CCOc1ccc(C(=O)CCC(=O)Nc2cc(-c3ccc(C(=O)OC)cc3)cc(-c3ccccc3)n2)cc1OCC [Example 112, methyl 4-(2-{[4-(3,4-diethoxyphenyl)-4-oxobutanoyl]amino}-6-phenylpyridin-4-yl)benzoate] | 500 to 10000 nM |
| CCOc1ccc(C(=O)CCC(=O)Nc2cc(-c3ccccc3C#N)cc(-c3ccccc3)n2)cc1OCC [Example 144, N-[4-(2-cyanophenyl)-6-phenylpyridin-2-yl]-4-(3,4-diethoxyphenyl)-4-oxobutanamide] | ≤ 10 nM |
| CCOC(=O)/C=C/c1ccc2nc(NC(=O)CCC(=O)c3ccc(OCC)c(OCC)c3)cc(-c3ccc(C)cc3)c2c1 [Example 77, ethyl(2E)-3-[2-{[4-(3,4-diethoxyphenyl)-4-oxobutanoyl]amino}-4-(4-methylphenyl)quinoline-6-yl]acrylate] | 10 to 50 nM |
| CCOc1ccc(C(=O)CCC(=O)Nc2cc(-c3cccc(CCCO)c3)cc(-c3ccccc3)n2)cc1OCC [Example 137, 4-(3,4-diethoxyphenyl)-N-{4-[3-(3-hydroxypropyl)phenyl]-6-phenylpyridin-2-yl}-4-oxobutanamide] | 50 to 500 nM |
| CCOc1ccc(C(=O)CCC(=O)Nc2cc(-c3cccc(C(C)=O)c3)cc(-c3ccccc3)n2)cc1OCC [Example 140, N-[4-(3-acetylphenyl)-6-phenylpyridin-2-yl]-4-(3,4-diethoxyphenyl)-4-oxobutanamide] | 50 to 500 nM |
| CCOc1ccc(C(=O)CCC(=O)Nc2cc(-c3cccc(OC)c3)c3ccccc3n2)cc1OCC [Example 80, 4-(3,4-diethoxyphenyl)-N-[4-(3-methoxyphenyl)quinolin-2-yl]-4-oxobutanamide] | 10 to 50 nM |
| COC(=O)/C=C/c1ccc(-c2cc(NC(=O)CCC(=O)c3ccc4c(c3)CCO4)nc(-c3ccccc3)c2)cc1 [Example 159, methyl (2E)-3-[4-(2-{[4-(2,3-dihydro-1-benzofuran-5-yl)-4-oxobutanoyl]amino}-6-phenylpyridin-4-yl)phenyl]acrylate] | 500 to 10000 nM |
| CCCCOc1cccc(-c2cc(NC(=O)CCC(=O)c3ccc(OCC)c(OCC)c3)nc(-c3ccccc3)c2)c1 [Example 135, N-[4-(3-butoxyphenyl)-6-phenylpyridin-2-yl]-4-(3,4-diethoxyphenyl)-4-oxobutanamide] | 500 to 10000 nM |
| O=C(CCC(=O)c1ccc2c(c1)OCCO2)Nc1nc(-c2ccccc2)c(Cc2ccccc2)s1 [Example 67, N-(5-benzyl-4-phenyl-1,3-thiazol-2-yl)-4-(2,3-dihydro-1,4-benzodioxin-6-yl)-4-oxobutanamide] | 50 to 500 nM |
| CCOc1ccc(C(=O)CCC(=O)Nc2cn(Cc3ccccc3)nc2-c2ccccc2)cc1 [Example 109, N-(1-benzyl-3-phenyl-1H-pyrazol-4-yl)-4-(4-ethoxyphenyl)-4-oxobutanamide] | 500 to 10000 nM |
| CCOc1ccc(C(=O)CCC(=O)Nc2cc(-c3ccccc3OC)cc(-c3ccccc3)n2)cc1OCC [Example 146, 4-(3,4-diethoxyphenyl)-N-[4-(2-methoxyphenyl)-6-phenylpyridin-2-yl]-4-oxobutanamide] | ≤ 10 nM |
| CCCCCC/C=C/c1cc(NC(=O)CCC(=O)c2ccc(OCC)c(OCC)c2)nc(-c2ccccc2)c1 [Example 152, 4-(3,4-diethoxyphenyl)-N-{4-[(1E)-octa-1-en-1-yl]-6-phenylpyridin-2-yl}-4-oxobutanamide] | 500 to 10000 nM |
| CCCCOCCOc1cc(NC(=O)CCC(=O)c2ccc(OCC)c(OCC)c2)nc(-c2ccccc2)c1 [Example 107, N-[4-(2-butoxyethoxy)-6-phenylpyridin-2-yl]-4-(3,4-diethoxyphenyl)-4-oxobutanamide] | 50 to 500 nM |
| CCOc1ccc(C(=O)CCC(=O)Nc2cc(-c3ccc(C)cc3)c3cc(/C=C/C(=O)OC(C)(C)C)ccc3n2)cc1OCC [Example 78, tert-butyl (2E)-3-[2-{[4-(3,4-diethoxyphenyl)-4-oxobutanoyl]amino}-4-(4-methylphenyl)quinoline-6-yl]acrylate] | 50 to 500 nM |
